# Source: US9371333B2, “Chromene derivatives and their analoga as Wnt pathway antagonists” (Deutsches Krebsforschungszentrum, priority 2010, dated 2016)
# Legend:
# Assay type in all cases: cell-based
# [1] = tested on: Hek293T; test: Cytotoxicity in Hek293T (CellTiterGlo); conditions: Homo sapiens, HEK-293T, 24 h after compound addition
# Experimental: (§1) For examination of cytotoxicity in these cancer cell lines the commercial available CellTiterGlo® Reagent (Promega, USA) was used according to the manufactor.
# (§2) Compounds were applied to Hek293T (denoted (a)) or HepG2 (denoted (b)), cultured in Dulbecco's Modified Eagles Medium, supplemented with 10% fetal calf serum and 1% penicillin/streptomycin. Cells were grown in T75 flasks at 37° C., 5% CO2 and trypsinized when 60-80% confluent by adding 2 ml of 0.25% Trypsin-EDTA solution. Cells were then re-suspended into culture medium yielding approx. 4000 cells (a) or 4500 cells (b), suspended in 30 microl medium. 48 h after cell seeding, compounds were added to yield the desired final concentrations. 24 h after compound addition cytotoxicity was evaluated. For this purpose the media was removed and CellTiterGlo® was added according to the manufactors manual. In this assay the luciferase emission readout is directly correlated with the cellular amount of ATP, low luciferase emission thus is reflecting cytotoxicity of a compound.
# [2] = tested on: HepG2; test: Cytotoxicity in HepG2 (CellTiterGlo); conditions: Homo sapiens, 24 h after compound addition
# Experimental: as §1, §2
# [3] = tested on: human fibroblasts (HS-68); test: Cell line specific cytotoxicity, normal cells HS68 (nuclei count); conditions: Hoechst labeled nuclei count, at least 72 hr
# Experimental: For examination of cell line-specific cytotoxicity, compounds were applied to human colorectal cancer cells (HCT116, denoted (1); SW480, denoted (2); Dld-1, denoted (3)) and human fibroblasts (HS-68, denoted (4)), cultured in Mc Coy's ((1)) and Dulbecco's Modified Eagles Medium ((2)-(4)), supplemented with 10% ((1)-(3)) and 20% ((4)) fetal calf serum and 1% penicillin/streptomycin. Cells were grown in T75 flasks at 37° C., 5% CO2 and trypsinized when 60-80% confluent by adding 2 ml of 0.25% Trypsin-EDTA (ethylenediaminetetraacetic acid) solution. Cells were then re-suspended into culture medium yielding approx. 750 cells, suspended in 45 microl medium, were plated into each well of a black 384-well plate for fluorescence imaging experiments. […] Compound incubation was terminated by (a) fixation and (b) permeabilisation of cells, followed by (c) fluorescence labeling of cell nuclei for cytometric quantification or by immunocytochemistry for microscopic evaluation of cell morphology. […]
# Cell line-specific cytotoxicity was quantified by counting the number of Hoechst labeled nuclei per well of a 384-well plate using a plate cytometer. Data obtained with the cytometer was analysed using standard data analysis software.
# Identified hits were further evaluated by visual inspection of fluorescence micrographs obtained from imaging using a conventional fluorescence microscope.
structure (smiles),measurement,setting,value
"C=CCOc1c(Br)cc(C2C(C(=O)OCC)=C(N)Oc3c2ccc2ccccc32)cc1OC (stereo not drawn) [(4), 4-(4-Allyloxy-3-bromo-5-methoxy-phenyl)-2-amino-4H-benzo[h]chromene-3-carboxylic acid ethyl ester]",IC50,[1],> 90 µM
same,IC50,[2],> 90 µM
"COc1cc(C2C(C#N)=C(N(C)C)Oc3cc4ccccc4cc32)cc(Br)c1OC (stereo not drawn) [(31), 2-Dimethylamino-4-(3-bromo-4,5-dimethoxy-phenyl)-4H-benzo[g]chromene-3-carbonitrile]",IC50,[1],> 90 µM
same,IC50,[2],> 90 µM
"COc1cc(C2C(C#N)=C(N)Oc3c2ccc2ccc(C)nc32)cc(Br)c1OC (stereo not drawn) [(16), 3-Amino-1-(3-bromo-4,5-dimethoxy-phenyl)-6-methyl-1H-4-oxa-5-aza-phenanthrene-2-carbonitrile]",IC50,[1],> 90 µM
same,IC50,[2],> 90 µM
"C=CCOc1c(Br)cc(C2C(C#N)=C(N)Oc3cc4c(cc32)OCO4)cc1OC (stereo not drawn) [(41), 8-(4-Allyloxy-3-bromo-5-methoxy-phenyl)-6-amino-8H-[1,3]dioxolo[4,5-g]chromene-7-carbonitrile]",IC50,[1],> 90 µM
same,IC50,[2],> 90 µM
"COc1cc(C2C(C#N)=C(N)Oc3c2ccc2ccccc32)cc(Br)c1OC (stereo not drawn) [(1), 2-Amino-4-(3-bromo-4,5-dimethoxy-phenyl)-4H-benzo[h]chromene-3-carbonitrile]",IC50,[1],> 90 µM
same,IC50,[2],> 90 µM
"COc1cc(C2C(C#N)=C(N)Oc3c2ccc2ccc(N)nc32)cc(Br)c1OC (racemic) [(20), 3,6-Diamino-1-(3-bromo-4,5-dimethoxy-phenyl)-1H-4-oxa-5-aza-phenanthrene-2-carbonitrile]",IC50,[1],> 90 µM
same,IC50,[2],37 µM
"COc1cc(C2C(C#N)=C(N)Oc3c2ccc2ccc(O)nc32)cc(Br)c1OC (stereo not drawn) [(19), 3-Amino-1-(3-bromo-4,5-dimethoxy-phenyl)-6-hydroxy-1H-4-oxa-5-aza-phenanthrene-2-carbonitrile]",IC50,[1],> 90 µM
same,IC50,[2],> 90 µM
"CCOC(=O)C1=C(N)Oc2cc3c(cc2C1c1cc(F)c(F)c(F)c1)OCO3 (stereo not drawn) [(40), 6-Amino-8-(3,4,5-trifluoro-phenyl)-8H-[1,3]dioxolo[4,5-g]chromene-7-carboxylic acid ethyl ester]",IC50,[1],> 90 µM
same,IC50,[2],> 90 µM
"N#CC1=C(N)Oc2cc3c(cc2C1c1cc(F)c(F)c(F)c1)OCO3 (stereo not drawn) [(39), 6-Amino-8-(3,4,5-trifluoro-phenyl)-8H-[1,3]dioxolo[4,5-g]chromene-7-carbonitrile]",IC50,[1],> 90 µM
same,IC50,[3],> 90 µM
same,IC50,[2],> 90 µM
"N#CC1=C(N)Oc2c(ccc3ccccc23)C1c1cc(F)c(F)c(F)c1 (stereo not drawn) [(7), 2-Amino-4-(3,4,5-trifluoro-phenyl)-4H-benzo[h]chromene-3-carbonitrile]",IC50,[1],> 90 µM
same,IC50,[2],> 90 µM
"C=CCOc1c(Br)cc(C2C(C(=O)OCC)=C(N)Oc3cc4c(cc32)OCO4)cc1OC (stereo not drawn) [(42), 8-(4-Allyloxy-3-bromo-5-methoxy-phenyl)-6-amino-8H-[1,3]dioxolo[4,5-g]chromene-7-carboxylic acid ethyl ester]",IC50,[1],> 90 µM
same,IC50,[2],> 90 µM
"COc1cc(C2C(C#N)=C(N)Oc3cc4ccccc4cc32)cc(Br)c1OC (stereo not drawn) [(30), 2-Amino-4-(3-bromo-4,5-dimethoxy-phenyl)-4H-benzo[g]chromene-3-carbonitrile]",IC50,[1],> 90 µM
same,IC50,[2],> 90 µM
"N#CC1=C(N)Oc2cc3ccccc3cc2C1c1cc(F)c(F)c(F)c1 (stereo not drawn) [(28), 2-amino-4-(3,4,5-trifluoro-phenyl)-4H-benzo[g]chromene-3-carbonitrile]",IC50,[1],> 90 µM
same,IC50,[2],31.7 µM
"COc1cc(C2C(C#N)=C(N)Oc3c2c(O)nc2ccccc32)cc(Br)c1OC (stereo not drawn) [(17), 2-Amino-4-(3-bromo-4,5-dimethoxy-phenyl)-5-hydroxy-4H-pyrano[3,2-c]quinoline-3-carbonitrile]",IC50,[1],> 90 µM
same,IC50,[3],> 90 µM
same,IC50,[2],> 90 µM
"N#CC1=C(N)Oc2cc3ccccc3cc2C1c1cc(F)c(N2CCCCC2)c(F)c1 (stereo not drawn) [(29), 2-amino-4-(3,5-difluoro-4-piperidin-1-yl-phenyl)-4H-benzo[g]chromene-3-carbonitrile]",IC50,[1],> 90 µM
same,IC50,[2],42.5 µM
"CCOC(=O)C1=C(N)Oc2c(ccc3ccccc23)C1c1cc(Br)c(OC)c(OC)c1 (stereo not drawn) [(6), 2-Amino-4-(3-bromo-4,5-dimethoxy-phenyl)-4H-benzo[h]chromene-3-carboxylic acid ethyl ester]",IC50,[1],> 90 µM
same,IC50,[2],> 90 µM
"COc1cc(C2C(C#N)=C(N)Oc3c2ccc2ncccc32)cc(Br)c1OC (stereo not drawn) [(18), 6-Amino-8-(3-bromo-4,5-dimethoxy-phenyl)-8H-5-oxa-1-aza-phenanthrene-7-carbonitrile]",IC50,[1],> 90 µM
same,IC50,[2],> 90 µM
